Where two headings read alike, the source gives them in different places.
Assays:
Colo205 = experiment: MTT cytotoxicity assay, Colo205; assay type: cell-based; details: Homo sapiens, COLO 205, 72 h of exposure
Experimental: (§1) The in vitro cytotoxicity of the TSCs HL^1–HL^3, copper(II) complexes Cu(HL^1)Cl2, [Cu(L^2)Cl], and Cu(HL^3)Cl2, and oxidized TSCs HL^1a′, HL^1a″, and HL^2c′·CH3COOH was tested in the doxorubicin-sensitive Colo205 and the multidrug-resistant Colo320 human colonic adenocarcinoma cell lines as well as in normal human embryonal lung fibroblast cells (MRC-5) by the colorimetric MTT assay. […]
(§2) 2.5. In vitro cell studies
(§3) 2.5.1. Cell lines and culture conditions
(§4) All cell culture reagents were obtained from Sigma-Aldrich and plastic ware from Sarstedt
(§5) (Germany). Doxorubicin-sensitive human colonic Colo 205 and multidrug resistant
(§6) Colo 320/MDR-LRP adenocarcinoma cell lines were purchased from LGC Promochem,
(§7) Teddington, UK. The cells were cultured in Roswell Park Memorial Institute (RPMI) 1640
(§8) medium supplemented with 10% heat-inactivated fetal bovine serum, 2 mM L-glutamine, 1 mM
(§9) Na-pyruvate and 100 mM Hepes. The cell lines were incubated at 37°C, in a 5% CO2, 95% air
(§10) MRC-5 human embryonal lung fibroblast cell line (ATCC CCL-171) was purchased from LGC
(§11) Promochem, Teddington, UK. The cell line was cultured in Eagle’s Minimal Essential Medi um
(§12) (EMEM, containing 4.5 g/L glucose) supplemented with a non-essential amino acid mixture, a
(§13) selection of vitamins and 10% heat-inactivated fetal bovine serum. The cells were incubated at
(§14) 37°C, in a 5% CO2, 95% air atmosphere. All cell lines were detached with Trypsin-Versene
(§15) (EDTA) solution for 5 min at 37 °C.
(§16) The tested compounds were dissolved in DMSO using 10 mM concentration. Then stock solutions
(§17) were diluted in complete culture medium in 96-well microtiter plates, and two-fold serial dilutions
(§18) of compounds were prepared in 100 µL of RPMI 1640, horizontally. The semi-adherent colonic
(§19) adenocarcinoma cells were treated with Trypsin -Versene (EDTA) solution. They were adjusted to
(§20) a density of 1×10^4 cells in 100 µL of RPMI 1640 medium, and were added to each well, with the
(§21) exception of the medium control wells. The final volume of the wells containing compounds and
(§22) cells was 200 µL. The culture were incubated at 37 °C for 72 h; at the end of the incubation period,
(§23) 20 µL of MTT solution (from a stock solution of 5 mg/mL) were added to each well. After
(§24) incubation at 37 °C for 4 h, 100 µL of SDS solution (10% in 0.01 M HCI) were added to each well
(§25) and the plates were further incubated at 37 °C overnight. The cell growth was determined using
(§26) both methods by measuring the optical density (OD) at 450 nm (ref. 620 nm) with a Multiscan EX
(§27) ELISA reader. Inhibition of the cell growth (expressed as IC 50: inhibitory concentration that
(§28) reduces by 50% the growth of the cells exposed to the tested compounds) was determined from
(§29) the sigmoid curve where 100 – ((ODsample ‒ ODmedium control)/(ODcell control ‒ ODmedium control)) × 100
(§30) values were plotted against the logarithm of compound concentrations. […]
(§31) 0.76 tyrosyl radical/polypeptide. Samples containing 20 µM mR2 in 50 mM HEPES buffer, pH
(§32) 7.50/100 mM NaCl, and 20 µM respective compound in 1% (v/v) DMSO/H2O, and 2 mM

[1] = pKa by UV–vis titrations in 30% (v/v) DMSO/H2O; assay type: physicochemical; details: 30% (v/v) DMSO/H2O solvent mixture, I = 0.1 M (KCl), T = 25 °C
Source text: Proton dissociation constants (pKa) of drug molecules indicate the actual protonation state and the charge at a given pH, and therefore pKa are important parameters that affect the pharmacokinetic properties as well.
On the basis of the spectral changes two well-separated deprotonation processes were observed between pH 2 and 11. The first proton dissociation step taking place at pH < 5 is accompanied by a blue shift, and the λmax is shifted from 362 to 322 nm. This deprotonation step is attributed to the proton on the pyridinium nitrogen (PyH^+). Upon an increase of the pH a new process occurred as evidenced by a new band in the range of 350–450 nm (Figure 7b) and an isosbestic point at 350 nm, namely, the deprotonation of the hydrazinic nitrogen. In the strongly basic pH range (pH > 11.2) new broad bands appear at 400–600 nm (Figure 7b) with irreversible spectral changes most likely due to an oxidation of the TSC by the air oxygen.
Therefore, only two pKa values could be determined (Table 1) based on the deconvolution of the UV–vis spectra recorded at pH < 11.2 for HL^1 (molar absorbance spectra are seen in Figure S8a) as the oxidation hindered the accurate determination of the pKa for the aromatic OH group. Two pKa values were computed for HL^2 from the UV–vis titration data (Figure S9) as well; however, only one pKa was obtained in the case of HL^3 (Table 1), namely, that for the deprotonation of the PyH^+, since the proton dissociation of the hydrazinic nitrogen and the oxidation of the TSC were partly overlapped. On the basis of the determined pKa values, it can be concluded that the presence of the electron-donating methyl group in HL^2 results in a significant increase of both pKa values when compared to that of HL^1. A similar behavior was reported for the analogous 2-formylpyridine and 2-acetylpyridine TSC in our previous work.[67] […] All proligands are air-sensitive in the strongly basic pH range (pH > 11).
The metal complexes often undergo transformation processes upon dissolution, such as protonation, deprotonation, or dissociation to a metal-free ligand and metal ion depending on the pH, their concentration, and the solution speciation. The knowledge of the actual chemical form of the biologically active metal complexes in solution close to physiologically relevant conditions is quite important to elucidate the mechanism of action. Therefore, the solution stability of the copper(II) complexes (Cu(HL^1)Cl2, [Cu(L^2)Cl], and Cu(HL^3)Cl2) was studied by UV–vis spectrophotometry. […] At lower pH this type of complex is protonated, and thus the neutral ligand is bound via (Npyridine,N,S) donor atoms, while a mixed hydroxido complex with the (Npyridine,N,S^–)(OH) coordination pattern is formed in the basic pH range. On the basis of the close structural similarities between HL^1–HL^3 and the listed TSCs with a simpler scaffold, the formation of the same type of complexes is feasible. UV–vis titrations were performed with the complexes in a 30% (v/v) DMSO/H2O solvent mixture, and representative spectra are shown for Cu(HL^1)Cl2 in Figure 8. The spectra remain intact in a broad pH range (2.7–7.6), and an absorption band is observed with λmax at 406 nm being typical for a S → Cu charge transfer. This finding indicates the dominant presence of only one kind of complex, which is most probably the species with the (Npyridine,N,S^–) tridentate coordination mode. By decreasing the pH the λmax is hypsochromically shifted to 322 nm. […]

Colo320 = experiment: MTT cytotoxicity assay, Colo320; assay type: cell-based; details: Homo sapiens, COLO 320, 72 h of exposure
Experimental: as §1, §2, §3, §4, §5, §6, §7, §8, §9, §10, §11, §12, §13, §14, §15, §16, §17, §18, §19, §20, §21, §22, §23, §24, §25, §26, §27, §28, §29, §30, §31, §32

Compound	IC50 (Colo205) [µM]	pKa ([1]; read-out: pKa (NNH))	pKa ([1]; read-out: pKa (PyH^+))	IC50 (Colo320) [µM]
Cc1cc(NC(=S)NN=Cc2ccccn2)cc(C)c1O [HL^1, 2-Formylpyridine 4-(4-hydroxy-3,5-dimethylphenyl)thiosemicarbazone]	> 100	10.55 ± 0.01	3.01 ± 0.01	6.32 ± 0.49
CC(=NNC(=S)Nc1cc(C)c(O)c(C)c1)c1ccccn1 [HL^2, 2-Acetylpyridine 4-(4-hydroxy-3,5-dimethylphenyl)thiosemicarbazone]	> 100	11.08 ± 0.02	3.59 ± 0.02	> 100
Cc1cc(NC(=S)NN=Cc2ncccc2N)cc(C)c1O [HL^3, 3-Amino-2-formylpyridine 4-(4-hydroxy-3,5-dimethylphenyl)thiosemicarbazone]	48.2 ± 6.8		3.95 ± 0.04	> 100

Source: article PMC8335727 (Inorganic Chemistry, 2021)
